The conditions of data set [1]: 28 day course of administration; cited from earlier work.
For data set [2] the following is noted: mammalian models; oral, IP, IV administration; cited from earlier work.
In another data set the test system is HIV-1. In words: HIV-1 luciferase assay in infected MT-4 cells.
Data set [3] concerns HCV. As to the kind of experiment: Viral release assay, HCV from Huh1 cells.
Data set [4] concerns HBV. In words: Viral release assay, HBV from Huh1 cells. It is filed as cell-based, Hepatitis B virus.
The next data set deals with PRRS virus. As to the kind of experiment: PRRS inhibition in primary porcine lung alveolar macrophages. In kind it is cell-based, porcine reproductive and respiratory syndrome (PRRS) virus. The conditions noted are these: administration 72 hours post infection. The text has this:
As noted above, important mammalian hosts treatable by this family of compounds include not only humans, but veterinarily and commercially important animals. Although monkeys, dogs, cats, mice, rats, horses, rabbits, cattle, sheep and goats are all important hosts to be treated for viral infection, pigs may be the dominant commercial animal, worldwide. The United States Department of Agriculture has characterized PRRS virus as a significant, worldwide, agricultural concern related to animal health and causes large economic losses to producers, and labeled a biosecurity threat. (Project 2008-2017).

For data set [5], the system named is HCV. It is filed as cell-based, Hepatitis C virus.
The nature of the next data set: in vitro. The settings on record: African green monkey.
Data set [6] relates to HBV. In words: HBV primary assay in HepG2 cells (virion DNA). In kind it is cell-based, Hepatitis B virus. The settings on record: blinded NIAID study.
Data set [7] concerns Venezuelan Equine Encephalomyelitis (VEE). In kind it is cell-based. The settings on record: 25 uM, administered 3 days post-infection.
Another data set is described as follows: Stability to light. It is filed as physicochemical. An excerpt: R24 is subject to straight forward synthesis. […] The range of carriers available, is therefore, quite large. As a consequence, the compositions and methods of this invention embrace the FGI-104 compounds as neat solids, as pharmaceutically suitable preparations, in a pharmaceutically acceptable carrier of a variety of types. Compositions of the present invention may further comprise a pharmaceutical composition comprising a therapeutically effective amount of any of the small molecules (or combinations of small molecules) described above together with other materials, such as a suitable carrier, excipients, etc., for administration to a human or animal experiencing a viral infection or at risk of a viral infection. Such pharmaceutical compositions may be in solid, gel or liquid form and may be administered as appropriate to an individual IV, IM, IP or parenterally, topically, subcutaneously, orally, or through mucosal surfaces and routes (including, for example, rectal and vaginal suppositories). The exact dosage corresponding to a therapeutically effective amount will vary from mammal to mammal and virus to virus. […]

For the next data set, the system named is cowpox. In words: organism not typed. The settings on record: Vero. It is filed as cell-based.
The test system of another data set is replicon formation. It is filed as cell-based.
Another data set relates to N5A of HCV. In kind it is cell-based, Hepatitis C virus. The settings on record: 2.5 uM.
The next data set deals with malaria. The settings on record: cited from earlier work.

The source of these data is US20120142731A1, “METHODS OF INHIBITING VIRAL INFECTION” (Functional Genetics, Inc., priority 2007, published 2012).

As for `CC(C)(C)NCc1cc(Nc2ccnc3cc(Cl)ccc23)cc(-c2ccc(Cl)cc2)c1O` [Compound R24, 4′-chloro-5-[(7-chloro-4-quinolinyl)amino]-3-(1,1-dimethylethylamino)methyl [1,1′-biphenyl]-2-ol], in data set [1], the chromosomal instability entry is recorded as “not to induce significant chromosomal instability”. In data set [2], the tolerability result is “well tolerated”. For the same compound, the EC50 (in general, the midpoint of the concentration-response curve) with HIV-1 (Human immunodeficiency virus 1, MT4, 72 h) turned out to be 8.5 µM; in the data set on cowpox, 0.25 µM. Also, the luciferase detection entry in the data set on HIV-1 (MT-4 cells, relatively low dose, 72 hours post infection) was “effective zero”. The preventing viral release entry with HCV [3] and with HBV [4] was “effective in preventing viral release” throughout. Also, the “effectiveness as reflected by the EC90 value” in the data set with PRRS virus is “spectacular effectiveness”. Besides, in the data set on HCV [5], the “inhibition of the virus (luciferase signal)” value came to 100%. Also, the CC50 in “in vitro” was > 25 µM. In addition, in the data set on HBV [6], the “activity as measured by virion DNA” value is listed as “high level of activity”. For the same compound, in data set [7], the “inhibition of VEE” value is given as “dramatic inhibition”. The stability to light entry in the data set “Stability to light” is listed as “instability to light”. For the same compound, in the data set with replicon formation, the “inhibition of replicon formation” value was “does little to inhibit replicon formation”. The “signal protein N5A of HCV in protein blot” value with N5A of HCV is given as “completely missing”.

Consider `CC(C)(C)NCc1cc(Nc2ccnc3cc(Cl)ccc23)cc(-c2ccc(Cl)cc2)c1O.Cl.Cl` [WR-228,258 2HCl, 4′-chloro-5-[(7-chloro-4-quinolinyl)amino]-3-(1,1-dimethylethylamino)methyl[1,1′-biphenyl]-2-ol dihydrochloride], for which the “efficacy against chloroquinoline-resistant malarial strains” value with malaria (chloroquinoline-resistant strains) is “not effective”. For the same compound, the “efficacy against the parasite based disease (malaria)” value with malaria (compared with chloroquinoline) is “effective against the parasite based disease at about the same level as the dominant treatment”. Moreover, the tolerability result in data set [2] is reported as “well tolerated”.
